Values of other authors, collected in patent publication US20200253960A1, “ANTIBIOTIC FORMULATIONS FOR TREATING OF CAVITY INFECTIONS” (ARADIGM CORPORATION, priority 2019, published 2020).

Test system: Pseudomonas aeruginosa
Conditions: cystic fibrosis

## CC[C@H]1OC(=O)[C@H](C)[C@@H](O[C@H]2C[C@@](C)(OC)[C@@H](O)[C@H](C)O2)[C@H](C)[C@@H](O[C@@H]2O[C@H](C)C[C@H](N(C)C)[C@H]2O)[C@](C)(O)C[C@@H](C)CN(C)[C@H](C)[C@@H](O)[C@]1(C)O [azithromycin]
  interaction with inhaled tobramycin: antagonistic against inhaled tobramycin
